# Laboratory results from article PMC6719172, “Inhibition of CpLIP2 Lipase Hydrolytic Activity by Four Flavonols (Galangin, Kaempferol, Quercetin, Myricetin) Compared to Orlistat and Their Binding Mechanisms Studied by Quenching of Fluorescence” (Molecules, 2019).
# Assays:
# [1] = molecular target: T1, CpLIP2 lipase (Candida parapsilosis, UniProt Q8NIN8); experiment: Inhibition of CpLIP2 hydrolytic activity (ethyl oleate hydrolysis, GC); type: biochemical; conditions: for Ki: non-competitive or uncompetitive model
# Description: The effect of inhibitor concentrations on the hydrolysis reaction rate in standard conditions was assumed to follow either a non-competitive or an uncompetitive model, corresponding to Equation (1):(1) Ki=I/ V0/Vi−1 where V0 and Vi are the initial rates of the reaction without or with inhibitor at concentration I.
# Standard CpLIP2 hydrolytic activity measurement. Hydrolysis activities were determined by measuring the initial rates of fatty acid and esters production (µmol·min^−1·mL^−1), using ethyl oleate (C18:1, EE) as substrates. Specific activity is the total activity expressed in µmol·min^−1·mL^−1 in relation to protein concentration (mg·mL^−1). Experiments were conducted as described by. Hydrolysis of ethyl oleate (EO) was performed in aqueous emulsions at 30 °C. This emulsion consisted of 100 µmol·mL^−1 EO emulsified by sonication (Branson Sonifier 250, 20 s, 200 watts, 145 µm amplitude) in an aqueous solution of 20 g·L^−1 poly vinyl alcohol. The reactions of hydrolysis were prepared in glass test tube by adding 100 μL of ethyl oleate emulsion to 800 µL of sodium phosphate buffer 50 mM, pH 6.5; then the solutions were incubated in water bath at 30 °C for 5 min. The reaction was started by the addition of 100 µL of enzyme solution of CpLIP2 with final concentration 3 µg·mL^−1 with activity 2000 U/mL.
# The enzyme solution was pre-incubated at 25 °C, with continuous stirring at 350 rpm. Pre-incubation was conducted with 1980 µL CpLIP2 lipase diluted in sodium NaH2PO4/Na2HPO4 phosphate buffer (50 mM, pH 6.5) containing 20 µL absolute EtOH at 2 different times (1 and 30 min). This pre-incubation phase was conducted in closed vials placed during 2 h on a Radleys StarFish Multi-Experiment Workstation. The reaction was conducted for 15 min at 30 °C, and then stopped by adding 950 µL of a mixture of ethanol/sulphuric acid (100:0.8, v/v). After the addition of 50 µL of internal standards (ethanolic solution of pentadecanoic acid and its ethyl and methyl esters, 1 µmol each), lipids were extracted from the mixture with 1 mL of hexane. Samples were then prepared for analyzing esters and free fatty acids by gas chromatography (GC) as follows. Hexane extract (200 µL) was reacted with 25 µL pyridine and 25 µL N-methyl-tri (methylsilyl)-trifluoroacetamide (MSTFA) as silylating agent. Mixtures were incubated in water bath at 50 °C for 20 min, and then samples were ready for analysis. Reaction rates were determined by the analysis of fat composition by capillary gas chromatography after 15 min reaction. It was checked that less than 30% of the total substrate was converted at the end of the 15 min reaction.
# A Shimadzu GC 2010 plus gas chromatograph equipped with a flame ionization detector, an automatic sampler (injected volume 0.1 μL) and a split/splitless injector was used for analysis. The capillary column was a DB-5ht (15 m × 0.25 mm, Phenomenex, Le Pecq, France). The helium carrier flow was 1 mL min^−1and the split ratio was 1:50. Temperature conditions were, for reactions with individual substrates: injector 280 °C, detector 290 °C, oven 200–225 °C at 10 °C min^−1 then to 260 °C at 35 °C·min^−1 for ethyl ester (EE) and fatty acid (FA) of C18:1. Calibration curves were realized using emulsions of mixtures of FA and monoesters prepared according to the same protocol, without enzyme and alcohol.
# In order to measure the residual lipase activity in the presence of potential inhibitors, the previous method was conducted in the presence and absence of the inhibitors. For each potential inhibitor, the lipase-catalyzed rate of hydrolysis was evaluated after a pre-incubation period between the lipase and the potential inhibitors, which were solubilized in absolute ethanol at 1% of final concentration. The preincubation was performed at 25 °C with continuous stirring at 350 rpm with different concentration of inhibitors (14, 27.5, 55 µM) which represented, respectively 25, 50, 100-fold the final lipase concentration (0.55 µM). […]
# [2] = molecular target: T1, CpLIP2 lipase; experiment: Fluorescence resonance energy transfer between CpLIP2 and flavonols (Förster theory); type: binding
# Text: Fluorescence emission spectra of CpLIP2 lipase overlap the UV absorption spectrum of each flavonol studied, that may induce fluorescence resonance energy transfer (FRET) governed by the binding distance r between the protein behaving as energy donor and the flavonol energy acceptor. The binding distance r can be calculated via Förster theory with the following Equations (10) and (11):(10) E=1−F/ F0=R06/ R06+r^6 where E is the energy transfer efficiency, which is the photons fraction absorbed and transferred by the donor to the acceptor, F and F0 are the fluorescence intensities of donor (CpLIP2) in the presence or absence of acceptor (flavonol) at the same concentrations. The parameter r is the distance between acceptor and donor, and R0 is the Förster distance, which is the critical energy transfer distance when 50% of the excitation energy is transferred from the donor to the acceptor. […] The value of R0 ranges from 20–90 Å for biological macromolecules.
# [3] = molecular target: T1, CpLIP2 lipase; experiment: Fluorescence emission spectrum of CpLIP2 inhibited by THL; type: binding; conditions: 20-fold molar excess THL, pre-incubation at 25 °C for 30 min, excitation 285 nm
# Description: As mentioned above, a mixture of 300 µL was pipetted in each well. 190 µL sodium phosphate buffer 50 mM, pH 7.0 with 100 µL of NaCl: EtOH (8:2, v/v) solution. […] In parallel, native and denatured lipases without THL were incubated in the same conditions. Denaturation of lipase was done by heating in water bath at 100 °C for 20 min.
# [4] = molecular target: C. rugosa commercial lipase; design: method as in doi:10.1016/j.molcatb.2006.02.012; conditions: cited from earlier work
# T1 sequence (Q8NIN8 entry or part of it): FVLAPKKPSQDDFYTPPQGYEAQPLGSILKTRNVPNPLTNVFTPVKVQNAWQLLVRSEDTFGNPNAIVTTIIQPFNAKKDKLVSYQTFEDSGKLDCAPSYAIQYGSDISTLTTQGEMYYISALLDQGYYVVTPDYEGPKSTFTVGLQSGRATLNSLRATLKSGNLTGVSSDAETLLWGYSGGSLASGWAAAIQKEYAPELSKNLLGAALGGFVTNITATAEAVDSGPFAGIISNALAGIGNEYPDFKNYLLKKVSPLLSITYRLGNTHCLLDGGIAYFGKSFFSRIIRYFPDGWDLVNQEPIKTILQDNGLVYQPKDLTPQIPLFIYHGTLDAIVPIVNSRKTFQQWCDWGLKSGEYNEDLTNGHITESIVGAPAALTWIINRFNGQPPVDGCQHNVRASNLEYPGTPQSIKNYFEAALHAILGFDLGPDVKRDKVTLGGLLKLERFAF
Compound,Ki ([1]; estimated after 1 min of pre-incubation),Ki ([1]; estimated after 30 min of pre-incubation),"inhibition of CpLIP2 activity ([1]; after 1 min pre-incubation, concentration not given)",inhibition at 14 µM ([1]; read-out: inhibition of CpLIP2 catalytic activity),"remaining activity at 14 µM ([1]; read-out: residual activity, 14 µM (25-fold molar excess), 1 min pre-incubation)","remaining activity at 27.5 µM ([1]; read-out: residual activity, 27.5 µM (50-fold), 1 min pre-incubation)","remaining activity at 55 µM ([1]; read-out: residual activity, 55 µM (100-fold), 1 min pre-incubation)",occurrence of FRET with CpLIP2 lipase [2],blue shift of CpLIP2 fluorescence emission maximum [3],IC50 [4]
"CCCCCCCCCCC[C@@H](C[C@@H]1OC(=O)[C@H]1CCCCCC)OC(=O)[C@H](CC(C)C)NC=O [THL, tetrahydrolipstatin, reference compound]",1.2 µM,0.6 µM,~100%,90%,17.7%,3.9%,2.3%,no FRET occurred,4 nm,–
(±)-catechin [reference compound],–,–,–,–,–,–,–,–,–,7500 µM
